In EP0194158A2, “Anti-nicotine and anti-cotinine antibodies (monoclonal and other), and their uses in nicotine and cotinine assays” (Baylor College of Medicine, priority 1985, dated 1986):
pKd: −log10 of the molar value. Like-named read-outs stand apart in the source and are kept apart here.

How the values were obtained:
[1] = biological target: monoclonal antibody Anti-nicotine 402C10; assay: sandwich ELISA, inhibition of binding of monoclonal antibody to solid phase hapten (specificity); parameters: species or system mouse
Excerpt: (§1) Control values were less than 0.05 absorbance unit.

[2] = biological target: monoclonal antibody Anti-cotinine 305E5; assay: as above; parameters: species or system mouse
Excerpt: as §1

[3] = system: the 9 antinicotine antibodies (McAb)
Protocol: The specificity of two of the antibodies (anti-nicotine 402Cl0 and anti-cotinine 305E5) was analyzed,. using a modification of the sandwich ELISA technique, which technique is described in detail below. In essence, specificity was determined by discerning how much structually related substance need be added to inhibit binding of monoclonal antibody to solid phase hapten by 50%. The assays were carried out in wells coated with 0.012 ug nicotine- or cotinine-polylysine conjugate, and with anti-nicotine and anti-cotinine diluted 1:729,000.
The modification involved use of 0.01 m1 of serially diluted standard nicotine or cotinine, (known amounts of inhibitors to assess antibody specificity), or test samples (eg. saliva) added to 0.04 ml casein buffer before its incubation with monoclonal antibodies. Maximum A490 values (i.e., maximum antibody binding) were determined using casein buffer (0.01 ml) in place of inhibitor. […] Control values were less than 0.05 absorbance unit. […]
After the preparation, to determine McAb binding, 0.05 ml diluted ascites fluid was added to 0.05 ml casein buffer and the plates were incubated overnight at 4°C. […] Color development was stopped by addition of 0.05 ml 4N sulfuric acid, and the A490 nm values were measured in the ELISA reader.

[4] = biological target: monoclonal antibody Anti-nicotine 304A7, isotype IgG1lambda; settings: read-out: K; binding affinity constant; value is K multiplied by 10^-8
Protocol: (§2) The binding affinity constant (K; an indication of binding strength), was measured by the method described in R. Muller, 34 J. Immunol. Methods 345 (i980). The concentration of antibody in the ascites fluid was also measured by a method described in R. Muller, id.

[5] = biological target: monoclonal antibody Anti-nicotine 303C10, isotype IgG2k; settings: read-out: K; binding affinity constant; value is K multiplied by 10^-8
Protocol: as §2

[6] = biological target: monoclonal antibody Anti-nicotine 303C5, isotype IgG1lambda; settings: read-out: K; binding affinity constant; value is K multiplied by 10^-8
Protocol: as §2

[7] = biological target: monoclonal antibody Anti-nicotine 402C10, isotype IgG2ak; settings: read-out: K; binding affinity constant; value is K multiplied by 10^-8
Protocol: as §2

[8] = biological target: monoclonal antibody Anti-nicotine 302G3, isotype IgG1lambda; settings: read-out: K; binding affinity constant; value is K multiplied by 10^-8
Protocol: as §2

[9] = biological target: monoclonal antibody Anti-nicotine 304A4, isotype IgG1k; settings: read-out: K; binding affinity constant; value is K multiplied by 10^-8
Protocol: as §2

[10] = biological target: monoclonal antibody Anti-nicotine 302A12, isotype IgG1k; settings: read-out: K; binding affinity constant; value is K multiplied by 10^-8
Protocol: as §2

[11] = biological target: monoclonal antibody Anti-nicotine 301C4, isotype IgG1lambda; settings: read-out: K; binding affinity constant; value is K multiplied by 10^-8
Protocol: as §2

[12] = biological target: monoclonal antibody Anti-nicotine 203G3, isotype IgMlambda; settings: read-out: K; binding affinity constant; value is K multiplied by 10^-8
Protocol: as §2

[13] = system: single rabbit antinicotine serum
Excerpt: Also developed were similar ELISAs using rabbit antisera, that being prepared as described in J.J. Langone et al., Biochemistry (1973) supra; J.J. Langone, H. Van Vunakis, Methods in Enzymology (1982) supra. In these assays, no second antibody is required, because all rabbit IgG binds HRP-SpA (J.W. Goding, 20 J. Immunol. Methods 241 (1978)).

[14] = system: Monoclonal Antibody 206F8 (anti-cotinine); assay: Fluorescent (fluorometric) ELISA; assay type: binding, mouse; settings: nanograms of cotinine inhibitor required for 50% inhibition
Protocol: (§3) b. Fluorometric ELISA: The wells of polystyrene microtiter plates (Immulon 2; Dynatech Laboratories, Alexandria, VA) were coated respectively with 0.004 and 0.016 ug of polylysine-cotinine and polylysine-nicotine conjugate (0.1 ml) in 3 mM phosphate buffer, and incubated overnight at 4°C, pH 6.3. After aspiration, the wells were blocked with 0.2 ml casein buffer (0.01M Tris-buffered saline, pH 7.6., containing 0.01M EDTA and 0.2% vitamin-free casein (Nutritional Biochemicals, Cleveland, OH)) for 1 hour at room temperature, and then washed once with 0.2 ml of the same buffer and again aspirated. Assays were performed in 0.1 ml total volume per well using 0.050 ml diluted ascites (0.025 ml sample), and 0.025 ml nicotine or cotinine. Plates were incubated overnight at 4°C, washed three times with 0.2 ml casein buffer and then 0.1 ml biotin conjugated sheep anti-mouse IgG (Cooper Biomedical, Malvern, PA) diluted 1/250 with casein buffer was added. After incubation for 3 hours at room temperature, the plates were washed three times with 0.2 ml casein buffer, and streptavidin (0.5 ug) was added to each well, incubated for 1 hour at room temperature and washed as before. 0.1 ml of biotinylated alkaline phosphatase (Zymed, South San Francisco, CA) diluted 1/200 was added to each well, the plates were incubated for 1 hour at room temperature, washed with 0.2 ml PBS containing 0.05% Tween-20, and then washed three times with 0.2 ml of 0.01 M Tris-buffered saline, pH 7.6. 0.1 ml of substrate was added containing 2.5 mM 4-methylumbelliferyl phosphate dissolved in buffer containing diethanolamine (20% v/v) pH 10, 1 mM MgClz, and 9 mM levamisol. Fluorescence was measured with a Microfluor fluorometer (Dynatech Laboratories) at an excitation wavelength of 365 nm and emission wavelength of 450 nm. The plates were read right after substrate was added and again at 30 minute intervals. (Plates should be stored in the dark).

[15] = system: Monoclonal Antibody 305E5 (anti-cotinine); assay: Fluorescent (fluorometric) ELISA; assay type: binding, mouse; settings: nanograms of cotinine inhibitor required for 50% inhibition
Protocol: as §3

[16] = system: Monoclonal Antibody 309G5 (anti-cotinine); assay: Fluorescent (fluorometric) ELISA; assay type: binding, mouse; settings: nanograms of cotinine inhibitor required for 50% inhibition
Protocol: as §3

[17] = system: Monoclonal Antibody 308C11 (anti-cotinine); assay: Fluorescent (fluorometric) ELISA; assay type: binding, mouse; settings: nanograms of cotinine inhibitor required for 50% inhibition
Protocol: as §3

[18] = system: Rabbit Antibody 113D (anti-cotinine); assay: Fluorescent (fluorometric) ELISA; assay type: binding; settings: nanograms of cotinine inhibitor required for 50% inhibition
Protocol: as §3

[19] = system: Rabbit Antibody 495D (anti-cotinine); assay: Fluorescent (fluorometric) ELISA; assay type: binding; settings: nanograms of cotinine inhibitor required for 50% inhibition
Protocol: as §3

[20] = system: Rabbit Antibody 494D (anti-cotinine); assay: Fluorescent (fluorometric) ELISA; assay type: binding; settings: nanograms of cotinine inhibitor required for 50% inhibition
Protocol: as §3

[21] = system: Rabbit Antibody 482D (anti-cotinine); assay: Fluorescent (fluorometric) ELISA; assay type: binding; settings: nanograms of cotinine inhibitor required for 50% inhibition
[22] = biological target: monoclonal antibody Anti-cotinine 305E5, isotype IgG2bk; assay: binding affinity constant K (method of R. Muller); parameters: species or system mouse; settings: value is K multiplied by 10^-8
[23] = system: the 4 anticotinine antibodies (McAb); assay: sandwich ELISA, inhibition by homologous hapten, all anti-cotinine McAb; assay type: binding, mouse; settings: range over the 4 antibodies; each McAb diluted to give A490 1.0-1.2 without inhibitor
Protocol: as §1
Only 0.02 ng cotinine inhibited by 15%.

[24] = biological target: monoclonal antibody Anti-cotinine 309G5, isotype IgG1k; assay: binding affinity constant K (method of R. Muller); parameters: species or system mouse; settings: value is K multiplied by 10^-8
[25] = system: the 6 cotinine antisera (rabbit); assay: ELISA with rabbit antisera, no second antibody; assay type: binding; settings: range over the 6 antisera
Excerpt: In these assays, no second antibody is required, because all rabbit IgG binds HRP-SpA (J.W. Goding, 20 J. Immunol. Methods 241 (1978)).

[26] = biological target: monoclonal antibody Anti-cotinine 308C11, isotype IgG1k; assay: binding affinity constant K (method of R. Muller); parameters: species or system mouse; settings: value is K multiplied by 10^-8
[27] = system: Rabbit Antibody 481D (anti-cotinine); assay: Fluorescent (fluorometric) ELISA; assay type: binding; settings: nanograms of cotinine inhibitor required for 50% inhibition
[28] = biological target: monoclonal antibody Anti-cotinine 206F8, isotype IgAlambda; assay: binding affinity constant K (method of R. Muller); parameters: species or system mouse; settings: value is K multiplied by 10^-8
[29] = wells coated with 0.012 ug nicotine-polylysine conjugate, anti-nicotine diluted 1:729,000, total volume 0.1 ml
[30] = wells coated with 0.012 ug cotinine-polylysine conjugate, anti-cotinine diluted 1:729,000, total volume 0.1 ml
[31] = at 700 ng, the highest amount printed in the cell

C[N+]1([O-])CCCC1c1cccnc1 (stereo not drawn) [nicotine N'-oxide]
Nanograms required for 50% inhibition [1, 29]: 81.0 Nanograms
Nanograms required for 50% inhibition [2, 30]: 490 Nanograms

CN1CCCC1c1ccc(O)nc1 (stereo not drawn) [6-hydroxynicotine]
times more required for 50% inhibition than (S)-(-)-nicotine ([1]; ratio to the naturally occurring isomer): 5 fold
Nanograms required for 50% inhibition [1, 29]: 1.3 Nanograms
Nanograms required for 50% inhibition [2, 30]: 330 Nanograms

O=C1CCC(c2cccnc2)N1 (stereo not drawn) [desmethylcotinine]
Nanograms required for 50% inhibition [1, 29]: 10,000 Nanograms
fold more required for 50% inhibition compared to homologous hapten ([2]; ratio to (S)-(-)-cotinine): 13 fold
Nanograms required for 50% inhibition [2, 30]: 1.6 Nanograms

CN1CCCC1c1cccnc1N (stereo not drawn) [2-aminonicotine]
Nanograms required for 50% inhibition [1, 29]: 14.0 Nanograms
Nanograms required for 50% inhibition [2, 30]: 1,700 Nanograms

CN1CCC[C@H]1c1cccnc1 [(S)-(-)-nicotine]
inhibition [1]: 15%
Stereospecificity for (S)-(-)-nicotine ([3]; range over all 9 anti-nicotine McAb, versus R-(+)-nicotine): 5-45 fold
50% inhibition ([3]; range over the 9 antibodies, each McAb diluted to give A490 1.0-1.2 without inhibitor): 0.091 to 0.51 ng
pKd [4]: 7.94
pKd [5]: 7.73
pKd [6]: 8.15
pKd [7]: 8.08
pKd [8]: 8.21
pKd [9]: 8.12
pKd [10]: 8.10
pKd [11]: 8.01
pKd [12]: 7.68
required for 50% inhibition [13]: 3.9 ng

CN1C(=O)CC[C@H]1c1cccnc1 [(S)-(-)-cotinine]
Nanograms required for 50% inhibition [1, 29]: 1,000 Nanograms
inhibition ([2]; 0.02 ng cotinine): 15%
Nanograms required for 50% inhibition [2, 30]: 0.12 Nanograms
I 50% [14]: 0.255 nanograms
I 50% [15]: 0.024 nanograms
I 50% [16]: 0.015 nanograms
I 50% [17]: 0.033 nanograms
I 50% [18]: 0.045 nanograms
I 50% [19]: 0.310 nanograms
I 50% [20]: 0.075 nanograms
I 50% [21]: 0.025 nanograms
pKd [22]: 8.75
50% inhibition [23]: 0.038 to 0.12 ng
pKd [24]: 8.88
50% inhibition values [25]: 0.3 to 1.2 ng
pKd [26]: 8.49
I 50% [27]: 0.215 nanograms
pKd [28]: 8.27

CN1CCC[C@@H]1c1cccnc1 [(R)-(+)-nicotine]
Nanograms required for 50% inhibition [1]: 6.4 Nanograms
times more required for 50% inhibition than (S)-(-)-nicotine [1]: Twenty-five
Nanograms required for 50% inhibition [2]: 320 Nanograms

CCN1CCCC1c1cccnc1 (stereo not drawn) [N-ethylnornicotine]
Nanograms required for 50% inhibition [1, 29]: 5.4 Nanograms
inhibition (per cent in brackets) ([2]; at the 1,000 ng level): 44%
Nanograms required for 50% inhibition [2, 30]: > 1,000 Nanograms

c1cncc(C2=NCCC2)c1 [myosmine]
inhibition (per cent in brackets) [1, 31]: 13%
Nanograms required for 50% inhibition [1, 29]: > 700 Nanograms
Nanograms required for 50% inhibition [2, 30]: 220 Nanograms

O=C(O)CCC(=O)c1cccnc1 [gamma-(3-pyridyl-gamma-oxobutyric acid]
Nanograms required for 50% inhibition [1, 29]: 1,920 Nanograms
Nanograms required for 50% inhibition [2, 30]: 410 Nanograms

c1cncc([C@@H]2CCCCN2)c1 [anabasine]
Nanograms required for 50% inhibition [1, 29]: 14.3 Nanograms
Nanograms required for 50% inhibition [2, 30]: 170 Nanograms

(-)-cotinine N'-oxide
inhibition (per cent in brackets) ([1]; at the 1,000 ng level): 0%
Nanograms required for 50% inhibition [1, 29]: > 1,000 Nanograms
Nanograms required for 50% inhibition [2, 30]: 4.6 Nanograms

c1cncc([C@@H]2CCCN2)c1 [(-)-nornicotine]
Nanograms required for 50% inhibition [1]: 95.0 Nanograms
Nanograms required for 50% inhibition [2]: 50.0 Nanograms

CN1CCCC1c1ccc(N)nc1 (stereo not drawn) [6-aminonicotine]
Nanograms required for 50% inhibition [1, 29]: 35.0 Nanograms
Nanograms required for 50% inhibition [2, 30]: 8,500 Nanograms

CN1CCCC1CCO (stereo not drawn) [1-methyl-2-pyrrolidine ethanol]
Nanograms required for 50% inhibition [1, 29]: 5.4 Nanograms
Nanograms required for 50% inhibition [2, 30]: 6,950 Nanograms

O=NN1CCCC1c1cccnc1 (stereo not drawn) [N'-nitrosonornicotine]
inhibition (per cent in brackets) [1, 31]: 31%
Nanograms required for 50% inhibition [1, 29]: > 700 Nanograms
Nanograms required for 50% inhibition [2, 30]: 6.5 Nanograms
